# Test results from patent US4035394A, “5-Phenyl-2-furanyl-oxo or-hydroxy alkanoic acids and ethyl esters as gastric acid antisecretory agents” (Morton-Norwich Products, Inc., priority 1976, dated 1977).
# Tested on: gastric acid secretion
# Assay: modified standard pylorus-ligated secretory testing procedure in the rat
# Type: in vivo, Sprague-Dawley rat
# Settings: 300 mg/kg p.o. suspension in 0.5% Methocel 1 hour prior to pylorus ligation, 4 hours after ligation; for % Inhibition Gastric Acid Output: titration to pH7, vs control; for % Inhibition Vol. of Gastric Secretion: vs control
# Method: Such effect is evidenced using a modified standard pylorus-ligated secretory testing procedure in the rat. Sprague-Dawley rats, weighing 180-210 g and previously fasted for 24 hours, were used. All compounds were given perorally as suspensions in 0.5% Methocel 1 hour prior to pylorus ligation. Under light ether anesthesia, the rat stomach was ligated at the pylorus region. Four hours after ligation the conscious rat was sacrificed by a chloroform overdose. The stomach was carefully excised and its content drained into a centrifuge tube. Samples were centrifuged to separate secretions from debris. Gastric fluid volume reading and determination of sample contamination, based on debris and sample color, was made. Titration was performed on a sample aliquot of 1 ml diluted to a volume of 5 ml using distilled water. The titrant used was 0.1N NaOH. Total gastric acid output in the stomach was determined by titration to pH7. A dose of 300 mg/kg p.o. of a compound was administered to a group of rats and its effect on the volume of gastric secretion and acid output compared to a control group receiving 0.5% Methocel p.o. The activity of each compound based on the degree of inhibition of gastric acid output is set forth in Table I.
SMILES,% Inhibition Gastric Acid Output [%],% Inhibition Vol. of Gastric Secretion [%]
"CCOC(=O)CC(O)c1ccc(-c2ccc([N+](=O)[O-])cc2)o1 (stereo not drawn) [Example I, Ethyl 3-[5-(4-Nitrophenyl)-2-furanyl]-3-hydroxypropanoate]",43.1,33.17
"O=C(O)CCC(O)c1ccc(-c2ccc(Cl)cc2)o1 (stereo not drawn) [II, 4-[5-(4-Chlorophenyl)-2-furanyl]-4-hydroxybutanoic Acid]",72.3,47.3
"O=C(O)CC(O)c1ccc(-c2ccccc2Cl)o1 (stereo not drawn) [III, 3-[5-(2-Chlorophenyl)-2-furanyl]-3-hydroxypropanoic Acid]",95.0,33.5
"O=C(O)CCC(=O)c1ccc(-c2ccc(Cl)cc2)o1 [IV, B]",57.1,40.7
"O=C(O)CC(O)c1ccc(-c2ccc(Cl)cc2Cl)o1 (stereo not drawn) [V, 3-[5-(2,4-Dichlorophenyl)-2-furanyl]-3-hydroxypropanoic Acid]",45.4,3.4
"CCOC(=O)CC(=O)c1ccc(-c2ccc(Cl)cc2)o1 [VI, B]",50.0,19.8
